Laboratory results as given in patent US8283373B2, “Inhibitors of cytosolic phospholipase A2” (Pfizer Inc., priority 2005, dated 2012).

Experiments:
[1] = system: TXB2; experiment: Rat Whole Blood Assay (A23187-stimulated TXB2); assay type: cell-based; conditions: Rattus norvegicus; A23187 5 μM
Outline: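 Heparinized male Sprague-Dawley rat blood pre-incubated 15 min at 37 °C with compound or DMSO, then stimulated with 5 μM (final) A23187 for 10 min at 37 °C. Stopped with 20 mM EDTA; TXB2 in methanol-extracted plasma measured by ELISA.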

[2] = system: OVA-induced pulmonary inflammation; experiment: Rat antigen induced pulmonary inflammation model; assay type: in vivo
Description: The efficacy of the compound of Example 10 was evaluated in a Brown Norway rat model in which ovalbumin (OVA)-sensitized animals were challenged via the airways with an aerosol of ovalbumin (OVA) on days 1 and 2. OVA sensitized rats were challenged via aerosol on day 1 and day 2. The compound of Example 10 was administered at 30 mg/kg PO BID 1 hour prior to challenge and 10 hours after challenge over the 2 day challenge period. Dexamethasone was administered at 3 mg/kg IP 1 hour prior to challenge on day 1 and day 2. Animals were sacrificed on day 3 and bronchoalveolar cavities ravaged for analysis of cellular influx.

[3] = system: Ascaris suum antigen-induced bronchoconstriction and AHR; experiment: Sheep model of antigen-induced early and late-phase bronchoconstriction and AHR; assay type: in vivo
Description: In addition to the allergen induced pulmonary inflammation models in rodents, allergen induced changes in lung function are often evaluated in allergic sheep. […] Studies performed in this animal model present strong evidence that the release of arachidonic acid metabolites plays an important role in the development of late bronchial responses to antigen challenge (See Abraham, W. M., et al, Respiration. 1989; 56:48-56). Thus, the compound of Example 10 was evaluated for effects on allergen induced changes in lung function In a sheep model of asthma.
Allergen-induced reversible airway narrowing and AHR are two hallmark features of allergic asthma that can be examined in vivo in a sheep model of asthma. Studies performed in this animal model present strong evidence that the release of arachidonic acid metabolites plays an important role in the development of late bronchial responses to antigen challenge (See Abraham, W. M., et al., Respiration. 1989; 56:48-56). The release of leukotrienes through the LO pathway during the acute bronchial constriction after inhalation of Ascaris suum antigen represents the key factor for the initiation of the subsequent events, namely the late-phase response and the bronchial hyperreactivity. […] In addition, oral administration of a dual LTD4/TXB2 inhibitor can inhibit both the early and late-phase response, as well as AHR to carbachol and histamine (See Abraham, W. M., et al., J Pharmacol Exp Ther. 1988; 247:1004-1011).
The compound of Example 10 was administered at 3 mg/kg BID (PO) 24 h prior to challenge, 2 h prior to challenge and 8 hr post challenge. The mean % increase in airway resistance for 3 individual sheep over the ensuing 8 h period was determined.
The following day, airway hyperresponsiveness (AHR) was assessed in these same treated sheep by determining the cumulative carbachol concentration that increased specific lung resistance by 400%. […] In an extended dosing regimen, compound of Example 10 was administered at 3 mg/kg PO BID for 4 days before challenge, 2 hours before challenge on the fifth day and 8 hr post challenge.

[4] = 3 mg/kg BID PO 24 h and 2 h prior to and 8 hr post challenge
[5] = extended regimen: 3 mg/kg PO BID 4 days before challenge, 2 hours before and 8 hr post

## O=C(O)c1ccc(CCCc2c(CCNS(=O)(=O)Cc3ccccc3C(F)(F)F)n(C(c3ccccc3)c3ccccc3)c3ccc(Cl)cc23)cc1 [Example 10, 4-(3-{5-chloro-1-(diphenylmethyl)-2-[2-({[2-(trifluoromethyl)benzyl]sulfonyl}amino)ethyl]-1H-indol-3-yl}propyl)benzoic acid]
[1]
  IC50: 20 nM
[2]; 30 mg/kg PO BID
  influx of lymphocytes or neutrophils: no significant effect
  total numbers of inflammatory cells within the BALF: statistically significantly attenuated
[2]; 30 mg/kg PO BID over 2 day challenge, 8 out of 8 independent studies
  Bronchoalveolar lavage fluid (BALF) eosinophil influx: statistically significantly inhibited
[3]; [4]
  airway hyperresponsiveness (AHR) to carbachol: complete blockade
  late asthmatic response (airway resistance): Complete blockade
[3]; [5]
  AHR to aerosolized carbachol: complete blockade
  early asthmatic response: modest but statistically significant inhibition
  late-phase response: complete blockade
